Columns and labels:
[1] = system: monocotyledonous and dicotyledonous weeds; assay: Experiment on weeding effect in post-emergence stage (weeds); assay type: in vivo; conditions: 600 g/ha active ingredient plus water 450 kg/ha, 3 weeks after application, fresh weight control rate; for Amaranthus retroflexus activity level (growth control rate): fomesafen-resistant Amaranthus retroflexus
Summary of the method: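 Greenhouse pot-grown weeds and crops sprayed post-emergence 2–3 weeks after sowing with compound in acetone/Tween 80/water. Fresh-weight growth control scored after 3 weeks on a 0–5 scale (5: >85%, 0: <5%).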

[2] = system: major crops (wheat, corn, rice, soybean, cotton, oilseed rape, millet, sorghum); assay: Experiment on weeding effect in post-emergence stage (crops); assay type: in vivo; conditions: 600 g/ha active ingredient plus water 450 kg/ha, 3 weeks after application; for corn plant damage level (growth control rate): crop corn; for rice plant damage level (growth control rate): crop rice; for soybean plant damage level (growth control rate): crop soybean
Summary of the method: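 Weed and crop seeds were sown in soil-filled pots, covered with 0.5–2 cm soil and grown in a greenhouse. Plants were sprayed 2–3 weeks after sowing using a spray tower, with compound dissolved in acetone plus Tween 80 and diluted in water. Effect was expressed as fresh-weight growth control rate.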

Row | SMILES | Amaranthus retroflexus activity level (growth control rate) [1] | corn plant damage level (growth control rate) [2] | rice plant damage level (growth control rate) [2] | soybean plant damage level (growth control rate) [2] | Digitaria sanguinalis activity level (growth control rate) [1] | Setaria viridis activity level (growth control rate) [1] | Echinochloa crus-galli activity level (growth control rate) [1]
1 | C=CC(=O)N1c2ccc(F)cc2C(=O)N(C(C)C)S1(=O)=O [Compound 183] | 3 (Level 3: growth control rate is greater than or equal to 40% and less than 60%) | 0 (Level 0: growth control rate is less than 5%) | 0 (Level 0: growth control rate is less than 5%) | 0 (Level 0: growth control rate is less than 5%) | – | – | –
2 | CC(C)N1C(=O)c2cc(F)ccc2N(C(=O)C2CC2)S1(=O)=O [Compound 184] | 5 (Level 5: growth control rate is above 85%) | 1 (Level 1: growth control rate is greater than or equal to 500 and less than 200%) | – | – | 3 (Level 3: growth control rate is greater than or equal to 40% and less than 60%) | 3 (Level 3: growth control rate is greater than or equal to 40% and less than 60%) | –
3 | COCC(=O)N1c2ccc(F)cc2C(=O)N(C(C)C)S1(=O)=O [Compound 185] | 3 (Level 3: growth control rate is greater than or equal to 40% and less than 60%) | 0 (Level 0: growth control rate is less than 5%) | 0 (Level 0: growth control rate is less than 5%) | 0 (Level 0: growth control rate is less than 5%) | – | – | –
4 | CCCOC(=O)N1c2ccc(F)cc2C(=O)N(C(C)C)S1(=O)=O [Compound 186] | 4 (Level 4: growth control rate is greater than or equal to 60% and less than 85%) | 0 (Level 0: growth control rate is less than 5%) | 0 (Level 0: growth control rate is less than 5%) | 0 (Level 0: growth control rate is less than 5%) | – | – | –
5 | CCCCCCCCSC(=O)N1c2ccc(F)cc2C(=O)N(C(C)C)S1(=O)=O [Compound 189] | 4 (Level 4: growth control rate is greater than or equal to 60% and less than 85%) | 0 (Level 0: growth control rate is less than 5%) | 0 (Level 0: growth control rate is less than 5%) | 0 (Level 0: growth control rate is less than 5%) | – | – | –
6 | CC(C)N1C(=O)c2cc(F)ccc2N(C(=O)N(C)C)S1(=O)=O [Compound 190] | 3 (Level 3: growth control rate is greater than or equal to 40% and less than 60%) | 0 (Level 0: growth control rate is less than 5%) | 0 (Level 0: growth control rate is less than 5%) | 0 (Level 0: growth control rate is less than 5%) | – | – | –
7 | CCS(=O)(=O)N1c2ccc(F)cc2C(=O)N(C(C)C)S1(=O)=O [Compound 195] | 3 (Level 3: growth control rate is greater than or equal to 40% and less than 60%) | 0 (Level 0: growth control rate is less than 5%) | 0 (Level 0: growth control rate is less than 5%) | 0 (Level 0: growth control rate is less than 5%) | – | – | 3 (Level 3: growth control rate is greater than or equal to 40% and less than 60%)
8 | CCCS(=O)(=O)N1c2ccc(F)cc2C(=O)N(C(C)C)S1(=O)=O [Compound 196] | 5 (Level 5: growth control rate is above 85%) | 0 (Level 0: growth control rate is less than 5%) | – | 0 (Level 0: growth control rate is less than 5%) | 3 (Level 3: growth control rate is greater than or equal to 40% and less than 60%) | 5 (Level 5: growth control rate is above 85%) | 5 (Level 5: growth control rate is above 85%)
9 | COc1ccc(CN2c3ccc(F)cc3C(=O)N(C(C)C)S2(=O)=O)cc1 [Compound 197] | 3 (Level 3: growth control rate is greater than or equal to 40% and less than 60%) | 0 (Level 0: growth control rate is less than 5%) | 0 (Level 0: growth control rate is less than 5%) | 0 (Level 0: growth control rate is less than 5%) | – | – | –
10 | CC(C)N1C(=O)c2cc(F)cc(Br)c2N(C(=O)C2CC2)S1(=O)=O [Compound 199] | 5 (Level 5: growth control rate is above 85%) | 0 (Level 0: growth control rate is less than 5%) | 1 (Level 1: growth control rate is greater than or equal to 500 and less than 200%) | – | – | 5 (Level 5: growth control rate is above 85%) | –
11 | COCN1c2c(F)cc(F)cc2C(=O)N(C(C)C)S1(=O)=O [Compound 213] | 3 (Level 3: growth control rate is greater than or equal to 40% and less than 60%) | 0 (Level 0: growth control rate is less than 5%) | 1 (Level 1: growth control rate is greater than or equal to 500 and less than 200%) | 0 (Level 0: growth control rate is less than 5%) | – | – | –
12 | CCC(=O)N1c2c(F)cc(F)cc2C(=O)N(C(C)C)S1(=O)=O [Compound 214] | 5 (Level 5: growth control rate is above 85%) | 0 (Level 0: growth control rate is less than 5%) | – | – | 5 (Level 5: growth control rate is above 85%) | 5 (Level 5: growth control rate is above 85%) | 4 (Level 4: growth control rate is greater than or equal to 60% and less than 85%)
13 | CC(C)C(=O)N1c2c(F)cc(F)cc2C(=O)N(C(C)C)S1(=O)=O [Compound 215] | 5 (Level 5: growth control rate is above 85%) | 1 (Level 1: growth control rate is greater than or equal to 500 and less than 200%) | – | – | 5 (Level 5: growth control rate is above 85%) | 5 (Level 5: growth control rate is above 85%) | 5 (Level 5: growth control rate is above 85%)
14 | C=CC(=O)N1c2c(F)cc(F)cc2C(=O)N(C(C)C)S1(=O)=O [Compound 216] | 4 (Level 4: growth control rate is greater than or equal to 60% and less than 85%) | 0 (Level 0: growth control rate is less than 5%) | 0 (Level 0: growth control rate is less than 5%) | – | 3 (Level 3: growth control rate is greater than or equal to 40% and less than 60%) | 4 (Level 4: growth control rate is greater than or equal to 60% and less than 85%) | 3 (Level 3: growth control rate is greater than or equal to 40% and less than 60%)
15 | CC(C)N1C(=O)c2cc(F)cc(F)c2N(C(=O)C2CC2)S1(=O)=O [Compound 217] | 5 (Level 5: growth control rate is above 85%) | 1 (Level 1: growth control rate is greater than or equal to 500 and less than 200%) | – | – | 5 (Level 5: growth control rate is above 85%) | 5 (Level 5: growth control rate is above 85%) | 5 (Level 5: growth control rate is above 85%)
16 | CCCOC(=O)N1c2c(F)cc(F)cc2C(=O)N(C(C)C)S1(=O)=O [Compound 218] | 5 (Level 5: growth control rate is above 85%) | 0 (Level 0: growth control rate is less than 5%) | 1 (Level 1: growth control rate is greater than or equal to 500 and less than 200%) | – | – | 5 (Level 5: growth control rate is above 85%) | 4 (Level 4: growth control rate is greater than or equal to 60% and less than 85%)
